From US9573961B2, “Inhibitors of the renal outer medullary potassium channel” (Merck Sharp & Dohme Corp., priority 2012, dated 2017)
Where two headings read alike, the source gives them in different places.

Legend:
hROMK (hKir1.1) = hROMK (hKir1.1) (Homo sapiens (Human), UniProt P48048); assay: Thallium Flux Assay (ROMK channel functional thallium flux, FLIPR-Tetra); format: cell-based
How it was run: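 HEK293 cells stably expressing hROMK loaded with FluxOR dye for 90 min, then incubated with compound for 30 min at 23-25 °C. Normalized to a 3 μM standard ROMK inhibitor as % fluorescence change.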

Kir1.1 (ROMK1) = Kir1.1 (ROMK1) (Homo sapiens (Human), UniProt P48048); assay: Electrophysiology Assay (whole cell voltage clamp, IonWorks Quattro); format: cell-based; details: block during voltage step to 0 mV
How it was run: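 CHO cells stably expressing the channel, induced overnight with 1 mM sodium butyrate, were recorded in amphotericin-perforated patch mode. The test pulse was a 100 ms step to 0 mV from −70 mV, then a −70 to +70 mV ramp, applied before and after a 6 min compound incubation. Current amplitudes were compared.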

[1] = HEK293 cells stably expressing hROMK (hKir1.1), read-out: Thallium Flux IC50
[2] = Chinese hamster ovary cells stably expressing Kir1.1, read-out: Electrophysiology IC50
[3] = Electrophysiology IC50, Chinese hamster ovary cells stably expressing Kir1.1

Sequence of Kir1.1 (ROMK1) (P48048 whole entry): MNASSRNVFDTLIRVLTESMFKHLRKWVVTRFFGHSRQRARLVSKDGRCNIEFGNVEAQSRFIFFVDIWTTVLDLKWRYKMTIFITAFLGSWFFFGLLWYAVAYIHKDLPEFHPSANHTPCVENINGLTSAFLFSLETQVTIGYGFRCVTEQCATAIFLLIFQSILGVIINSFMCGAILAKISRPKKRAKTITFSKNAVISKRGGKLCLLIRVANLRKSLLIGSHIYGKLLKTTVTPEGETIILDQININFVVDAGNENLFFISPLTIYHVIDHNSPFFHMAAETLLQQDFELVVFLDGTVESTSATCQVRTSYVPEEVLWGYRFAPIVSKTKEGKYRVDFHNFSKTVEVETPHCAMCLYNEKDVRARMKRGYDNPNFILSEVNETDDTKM
Sequence of hROMK (hKir1.1) (P48048 whole entry): as above

| SMILES | IC50 (hROMK (hKir1.1); [1]) [nM] | IC50 (Kir1.1 (ROMK1); [2]) [nM] | IC50 (Kir1.1 (ROMK1); [3]) [nM] | IC50 (hROMK (hKir1.1); Thallium Flux IC50) [nM] |
| --- | --- | --- | --- | --- |
| Cc1c([C@H]2CN3CCN(C(=O)C4CCCc5cc(-n6cnnn6)ccc54)C[C@H]3CO2)csc1C#N (single isomer, unassigned) [Example 97] | 620 | 280 | – | – |
| Cc1c([C@H]2CN3CCN(C(=O)C4Cc5ccc(-n6cnnn6)cc5C4)C[C@H]3CO2)ccc(F)c1C#N (stereo partly drawn) [Example 44, 6-fluoro-2-methyl-3-[(3S,9aS)-8-{[5-(1H-tetrazol-1-yl)-2,3-dihydro-1H-inden-2-yl]carbonyl}octahydropyrazino[2,1-c][1,4]oxazin-3-yl]benzonitrile] | 370 | 160 | – | – |
| COc1cc(CC(=O)N2CCN3C[C@@H](c4ccc5c(c4)CCOC5=O)OC[C@@H]3C2)c(F)cc1C#N [Example 30, 5-fluoro-2-methoxy-4-{2-oxo-2-[(3R,9aS)-3-(1-oxo-3,4-dihydro-1H-isochromen-6-yl)hexahydropyrazino[2,1-c][1,4]oxazin-8(1H)-yl]ethyl}benzonitrile] | 100 | – | 110 | – |
| Cc1c([C@@H]2CN3CCN(C(=O)C(C)c4ccc(-n5cnnn5)cc4)C[C@H]3CO2)ccc(F)c1C#N (stereo partly drawn) [Example 45, 6-fluoro-2-methyl-3-[(3R,9aS)-8-{2-[4-(1H-tetrazol-1-yl)phenyl]propanoyl}octahydropyrazino[2,1-c][1,4]oxazin-3-yl]benzonitrile] | 330 | 210 | – | – |
| COc1cc([C@@H]2CN3CCN(C(=O)C4CCc5cc(-n6cnnn6)ccc54)C[C@@H]3CO2)ccc1C#N (stereo partly drawn) [Example 64, 2-methoxy-4-[(3R,9aR)-8-{[5-(1H-tetrazol-1-yl)-2,3-dihydro-1H-inden-1-yl]carbonyl}octahydropyrazino[2,1-c][1,4]oxazin-3-yl]benzonitrile] | 270 | 210 | – | – |
| Cc1c([C@H]2CN3CCN(C(=O)Cc4ccc(-n5cnnn5)cc4)C[C@H]3CO2)ccc(Cl)c1C#N [Example 35, 6-chloro-2-methyl-3-[(3S,9aS)-8-{[4-(1H-tetrazol-1-yl)phenyl]acetyl}octahydropyrazino[2,1-c][1,4]oxazin-3-yl]benzonitrile] | 760 | – | 260 | – |
| Cc1c([C@@H]2CN3CCN(C(=O)C4CCc5cc(-n6cnnn6)ccc54)C[C@H]3CO2)csc1C#N (single isomer, unassigned) [Example 83] | 140 | 90 | – | – |
| COc1cc(CC(=O)N2CCN3C[C@@H](c4ccc5c(c4)CCOC5=O)OC[C@@H]3C2)ccc1C#N [Example 29, 2-methoxy-4-{2-oxo-2-[(3R,9aS)-3-(1-oxo-3,4-dihydro-1H-isochromen-6-yl)hexahydropyrazino[2,1-c][1,4]oxazin-8(1H)-yl]ethyl}benzonitrile] | 300 | – | 130 | – |
| Cc1c([C@@H]2CN3CCN(C(=O)Cc4cccc(-n5cnnn5)c4)C[C@H]3CO2)ccc(F)c1C#N [Example 47, 6-fluoro-2-methyl-3-[(3R,9aS)-8-{[3-(1H-tetrazol-1-yl)phenyl]acetyl}octahydropyrazino[2,1-c][1,4]oxazin-3-yl]benzonitrile] | 300 | 90 | – | – |
| COc1ccc([C@H]2CN3CCN(C(=O)C4CCc5cc(-n6cnnn6)ccc54)C[C@H]3CO2)c(C)c1C#N (stereo partly drawn) [Example 62, 6-methoxy-2-methyl-3-[(3S,9aS)-8-{[5-(1H-tetrazol-1-yl)-2,3-dihydro-1H-inden-1-yl]carbonyl}octahydropyrazino[2,1-c][1,4]oxazin-3-yl]benzonitrile] | 200 | 650 | – | – |
| Cc1c(C#N)cccc1[C@H]1CN2CCN(C(=O)Cc3ccc(-n4cnnn4)cc3)C[C@H]2CO1 [Example 43, 2-methyl-3-[(3S,9aS)-8-{[4-(1H-tetrazol-1-yl)phenyl]acetyl}octahydropyrazino[2,1-c][1,4]oxazin-3-yl]benzonitrile] | 140 | 170 | – | – |
| Cc1c([C@H]2CN3CCN(C(=O)Cc4c(F)cc(-n5cnnn5)cc4F)C[C@H]3CN2)ccc(F)c1C#N [Example 103] | – | – | 80 | 110 |
